# US20060127914A1 (priority 1999, published 2006)
# Assays:
# [1] = biological target: T1, α9 alone (homomeric α9 nAChR) (Homo sapiens, UniProt Q9UGM1, N442S); test: Two electrode voltage clamp recording in Xenopus oocytes injected with α9 alone; format: cell-based
# T1 construct: expressed in transfected cells; host or cells: Xenopus laevis oocytes injected with cRNA made from cDNA in pSP64T.GL+
# Method: (§1) 5 minutes washout time was allowed between each response. The data is corrected for run-up or run-down and expressed as a percentage of the maximum evoked current. Curves have been fitted using the non-linear curve fitting routine of Graph Pad. The fit is constrained to a lower bound of 0 while the upper bound is unconstrained. The correlation coefficients are R^2=0.9999 and 0.9980 for α9 and α9/α10, respectively.
# (§2) Xenopus laevis females were purchased from Blades Biological, UK. The animals were maintained and dissected as described in Gould (1994) Membrane Protein and Expression Systems: a User's Guide Portland Press, London. Stage V or VI oocytes were de-folliculated by incubating with 0.2% collagenase (Sigma) in calcium-free Barth's solution on a vibrating platform set at 8 Hz for 2 hours at 18° C. Oocytes were then maintained in normal Barth's solution (containing 160 IU/ml penicillin and 74 IU/ml streptomycin). On the following day oocytes were injected with 1 to 25 ng cRNA using a Drummond Nanoject and left for at least three days before recording. cRNA was synthesised from cDNAs previously subcloned into the pSP64T.GL+ vector using the SP6 Message Machine Kit (Ambion).
# (§3) Two electrode voltage clamp recording was carried out using a TURBO TEC-10CD (NPI Electronic GmbH, D-71732 Tamm, Germany). For current recording oocytes were placed in ND-96 Ringer (containing 96 mM NaCl, 1.8 mM CaCl2, 2 mM KCl, 1 mM MgCl2 and 5 mM HEPES (pH=7.4)) and impaled with two electrodes filled with 3 M KCl and 1 to 2 MΩ tip resistance. Recording were made in oocytes in which the membrane potential stabilised to potentials more negative than −20 mV during a 20 minute stabilisation period.
# (§4) α10 nAChR function and pharmacology was investigated in Xenopus oocytes using two electrode voltage clamp techniques.
# α9/α10 combination = biological target: T2, α9/α10 combination (Homo sapiens, UniProt Q9GZZ6+Q9UGM1, N442S); test: Two electrode voltage clamp recording in Xenopus oocytes injected with α9 plus α10; format: cell-based
# T2 construct: expressed in transfected cells; host or cells: Xenopus laevis oocytes injected with cRNA made from cDNAs in pSP64T.GL+
# T2 sequence (Q9GZZ6 25-450): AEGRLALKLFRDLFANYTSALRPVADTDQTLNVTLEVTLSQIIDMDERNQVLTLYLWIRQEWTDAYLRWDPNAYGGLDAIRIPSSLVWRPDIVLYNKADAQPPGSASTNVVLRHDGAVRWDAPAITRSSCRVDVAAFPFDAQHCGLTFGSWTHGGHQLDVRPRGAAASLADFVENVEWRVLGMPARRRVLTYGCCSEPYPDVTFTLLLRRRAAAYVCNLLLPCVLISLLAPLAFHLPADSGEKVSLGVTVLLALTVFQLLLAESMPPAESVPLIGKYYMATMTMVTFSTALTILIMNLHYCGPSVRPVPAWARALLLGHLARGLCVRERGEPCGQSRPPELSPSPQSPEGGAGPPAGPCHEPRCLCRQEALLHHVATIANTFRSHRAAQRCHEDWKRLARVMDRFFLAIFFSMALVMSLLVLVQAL
# T2 sequence (Q9UGM1 23-479 N442S): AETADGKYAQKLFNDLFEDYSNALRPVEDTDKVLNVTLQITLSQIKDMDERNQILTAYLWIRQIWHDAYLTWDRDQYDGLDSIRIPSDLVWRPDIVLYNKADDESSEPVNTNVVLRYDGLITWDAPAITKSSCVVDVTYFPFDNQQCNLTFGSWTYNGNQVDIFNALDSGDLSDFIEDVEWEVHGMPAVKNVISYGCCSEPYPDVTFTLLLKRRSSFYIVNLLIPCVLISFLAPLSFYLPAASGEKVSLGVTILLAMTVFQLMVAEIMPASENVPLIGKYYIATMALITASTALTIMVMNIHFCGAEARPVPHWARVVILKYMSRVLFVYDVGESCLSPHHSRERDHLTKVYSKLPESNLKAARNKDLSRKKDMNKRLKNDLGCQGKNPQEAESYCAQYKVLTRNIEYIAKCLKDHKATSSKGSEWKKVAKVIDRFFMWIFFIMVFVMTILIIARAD
# Method: as §1, §2, §3, §4
# [2] = read-out: IC50 for inhibition of ACh-evoked response
# T1 sequence (Q9UGM1 23-479 N442S): as above
Compound,"proportional increase in area-under-the curve for normalised responses ([1]; 30 s ACh application compared to 10 s application, α9 alone, N=2) [%]","proportional increase in area-under-the curve for normalised responses (α9/α10 combination; 30 s ACh application compared to 10 s application, α9/α10, N=2) [%]",Hill coefficient of inhibition curve [1],"IC50 [1, 2] [nM]",Hill coefficient of inhibition curve (α9/α10 combination),IC50 (α9/α10 combination; [2]) [nM]
"CC(=O)OCC[N+](C)(C)C [ACh, acetylcholine]",82,44,,,,
α-bungarotoxin [α-Btx],,,−1.25,2.7,−0.89,3.7
